Experimental findings from patent US11524961B2, “JAK kinase inhibitor and preparation method and use thereof” (Shanghai Longwood Biopharmaceuticals Co., Ltd., priority 2017, dated 2022) are described below.

In one experiment the target is JAK2 (Homo sapiens (Human), UniProt O60674). As to the kind of experiment: JAK2 enzyme activity inhibition (LANCE Ultra kinase assay). In general terms: In TR-FRET formats the signal depends on donor and acceptor labels being close together.
In the next experiment the target is JAK3 (Homo sapiens (Human), UniProt P52333). As to the kind of experiment: JAK3 enzyme activity inhibition (LANCE Ultra kinase assay). The settings on record: read-out: JAK3 inhibitory activity IC50.
JAK3, sequence (P52333 whole entry): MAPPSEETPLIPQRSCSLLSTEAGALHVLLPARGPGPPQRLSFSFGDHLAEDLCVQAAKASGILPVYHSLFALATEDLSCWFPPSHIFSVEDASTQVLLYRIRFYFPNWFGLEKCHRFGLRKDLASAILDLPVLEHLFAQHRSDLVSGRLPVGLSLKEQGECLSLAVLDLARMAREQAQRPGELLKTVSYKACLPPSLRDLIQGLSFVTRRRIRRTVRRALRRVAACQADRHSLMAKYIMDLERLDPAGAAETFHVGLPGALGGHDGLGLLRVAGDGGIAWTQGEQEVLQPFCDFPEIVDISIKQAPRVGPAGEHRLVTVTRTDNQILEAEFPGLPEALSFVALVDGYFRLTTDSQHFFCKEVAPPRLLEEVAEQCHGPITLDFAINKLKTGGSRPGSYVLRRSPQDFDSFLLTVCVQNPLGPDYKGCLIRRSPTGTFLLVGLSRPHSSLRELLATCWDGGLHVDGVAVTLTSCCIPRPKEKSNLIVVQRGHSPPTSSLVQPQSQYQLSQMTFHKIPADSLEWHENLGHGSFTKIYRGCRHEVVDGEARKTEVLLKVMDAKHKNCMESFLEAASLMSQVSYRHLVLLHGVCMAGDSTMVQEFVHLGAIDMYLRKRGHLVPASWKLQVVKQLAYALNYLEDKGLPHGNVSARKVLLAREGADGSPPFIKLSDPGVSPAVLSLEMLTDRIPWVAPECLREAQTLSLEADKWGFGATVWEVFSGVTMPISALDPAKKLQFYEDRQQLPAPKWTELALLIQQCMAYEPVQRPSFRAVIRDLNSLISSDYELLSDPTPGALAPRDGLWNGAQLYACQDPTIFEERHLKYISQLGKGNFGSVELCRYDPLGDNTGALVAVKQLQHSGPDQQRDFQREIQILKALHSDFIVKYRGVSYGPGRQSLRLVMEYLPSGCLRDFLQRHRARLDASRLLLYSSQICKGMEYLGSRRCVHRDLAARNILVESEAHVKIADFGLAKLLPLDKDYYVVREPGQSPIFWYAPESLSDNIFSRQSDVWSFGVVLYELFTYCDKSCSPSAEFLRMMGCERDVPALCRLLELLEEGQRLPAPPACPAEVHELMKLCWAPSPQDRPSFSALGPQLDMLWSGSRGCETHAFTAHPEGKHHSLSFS

Read-outs that look alike come from different tables or passages of the source.

JAK2, sequence (O60674 whole entry): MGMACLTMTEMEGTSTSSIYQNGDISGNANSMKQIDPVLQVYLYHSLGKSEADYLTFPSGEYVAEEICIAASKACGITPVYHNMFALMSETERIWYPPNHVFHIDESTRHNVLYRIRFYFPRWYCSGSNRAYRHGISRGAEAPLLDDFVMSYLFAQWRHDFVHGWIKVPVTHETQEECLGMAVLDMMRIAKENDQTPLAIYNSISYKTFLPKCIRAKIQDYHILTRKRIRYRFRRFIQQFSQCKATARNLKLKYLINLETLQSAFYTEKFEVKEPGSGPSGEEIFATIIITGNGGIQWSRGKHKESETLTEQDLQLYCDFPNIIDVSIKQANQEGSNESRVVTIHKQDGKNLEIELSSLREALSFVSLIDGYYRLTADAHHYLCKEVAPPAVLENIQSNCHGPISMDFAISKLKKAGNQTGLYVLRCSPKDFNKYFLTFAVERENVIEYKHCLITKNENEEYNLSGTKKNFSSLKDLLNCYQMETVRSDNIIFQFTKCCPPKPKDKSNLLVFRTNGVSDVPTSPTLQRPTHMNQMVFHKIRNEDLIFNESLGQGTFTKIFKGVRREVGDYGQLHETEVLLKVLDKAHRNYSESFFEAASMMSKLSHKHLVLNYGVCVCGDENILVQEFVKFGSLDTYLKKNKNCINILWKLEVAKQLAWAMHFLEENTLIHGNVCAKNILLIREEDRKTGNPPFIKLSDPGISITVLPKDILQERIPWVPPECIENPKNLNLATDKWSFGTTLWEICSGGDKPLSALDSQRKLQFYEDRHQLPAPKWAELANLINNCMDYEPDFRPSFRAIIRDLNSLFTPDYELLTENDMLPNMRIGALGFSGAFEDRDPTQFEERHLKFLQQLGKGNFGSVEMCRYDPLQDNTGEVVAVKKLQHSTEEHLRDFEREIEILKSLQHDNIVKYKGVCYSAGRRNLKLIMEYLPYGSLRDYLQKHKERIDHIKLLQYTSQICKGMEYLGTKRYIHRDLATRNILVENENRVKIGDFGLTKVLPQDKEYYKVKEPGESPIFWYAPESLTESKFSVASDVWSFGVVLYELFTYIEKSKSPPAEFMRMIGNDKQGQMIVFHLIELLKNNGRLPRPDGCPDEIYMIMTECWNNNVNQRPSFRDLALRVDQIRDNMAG

In general, IC50 refers to the concentration at which inhibition is half-maximal. For the compound `CCS(=N)(=O)N1CC(CC#N)(n2cc(-c3ncnc4[nH]ccc34)cn2)C1` (single isomer, unassigned) [LW104-J], the results for the IC50 against JAK2 and on JAK3 were 0.1 to 10 nM and 116 nM, respectively.
As for `CCS(=N)(=O)N1CC(CC#N)(n2cc(-c3ncnc4[nH]ccc34)cn2)C1` (single isomer, unassigned) [LW104-K], the IC50 is 0.1 to 10 nM on JAK2 (read-out: JAK2 inhibitory activity IC50, class symbols) and 69.3 nM at JAK3.
`CC(N=[S@@](C)(=O)N1CC(CC#N)(n2cc(-c3ncnc4[nH]ccc34)cn2)C1)c1ccccc1` (stereo in doubt) [LW104-G] yielded an IC50 against JAK2 of 10 to 100 nM.
On to `CC(C)S(=N)(=O)N1CC(CC#N)(n2cc(-c3ncnc4[nH]ccc34)cn2)C1` (centres unmarked) [LW104-D], for which, on JAK3, the IC50 was 190 nM.
Consider `CCN=S(=O)(C1CC1)N1CC(CC#N)(n2cc(-c3ncnc4[nH]ccc34)cn2)C1` (centres unmarked) [LW104-M], for which, on JAK3, the IC50 was 194 nM.
For the compound `CN=S(=O)(C1CC1)N1CC(CC#N)(n2cc(-c3ncnc4[nH]ccc34)cn2)C1` (centres unmarked) [LW104-L], the half-maximal inhibitory concentration (IC50) was 0.1 to 10 nM at JAK2 and 158 nM on JAK3.
For `N#CCC1(n2cc(-c3ncnc4[nH]ccc34)cn2)CN(S(=O)(=NC2CC2)C2CC2)C1` (centres unmarked) [LW104-N] the same measures were 0.1 to 10 nM and 203 nM.
The matching figures for `CC(C)N=S(C)(=O)N1CC(CC#N)(n2cc(-c3ncnc4[nH]ccc34)cn2)C1` (centres unmarked) [LW104-I]: 10 to 100 nM and 649 nM.
The matching figures for `CCS(=N)(=O)N1CC(CC#N)(n2cc(-c3ncnc4[nH]ccc34)cn2)C1` (centres unmarked) [LW104-B]: 0.1 to 10 nM and 136 nM.
For the compound `N#CCC1(n2cc(-c3ncnc4[nH]ccc34)cn2)CN(S(=N)(=O)C2CC2)C1` (centres unmarked) [LW104-E], the concentration for half-maximal inhibition (IC50) is 0.1 to 10 nM against JAK2 and 187 nM on JAK3.
As for `CCS(=O)(=NC1CC1)N1CC(CC#N)(n2cc(-c3ncnc4[nH]ccc34)cn2)C1` (centres unmarked) [LW104-O], the IC50 on JAK3 was determined as 294 nM.
Take `CS(=N)(=O)N1CC(CC#N)(n2cc(-c3ncnc4[nH]ccc34)cn2)C1` (centres unmarked) [LW104-A]: the values for the IC50 on JAK2 and at JAK3 were 0.1 to 10 nM and 98.3 nM, respectively.
The matching figures for `CCS(=O)(=NC)N1CC(CC#N)(n2cc(-c3ncnc4[nH]ccc34)cn2)C1` (centres unmarked) [LW104-P]: 10 to 100 nM and 216 nM.
In the case of `CN=S(C)(=O)N1CC(CC#N)(n2cc(-c3ncnc4[nH]ccc34)cn2)C1` (centres unmarked) [LW104-F], the results for the IC50 at JAK2 and on JAK3 were 0.1 to 10 nM and 145 nM, respectively.
For `N#CCC1(n2cc(-c3ncnc4[nH]ccc34)cn2)CN(S(=N)(=O)c2ccccc2)C1` (centres unmarked) [LW104-C] the same measures were 10 to 100 nM and 427 nM.
